We go through 23 molecules from the Kinase Knowledgebase extract (Sharma et al. 2016).

The target of this experiment is MAPK14 (human) (UniProt Q16539). Nature of the experiment: Inhibition of MAPK14 Kinase Activity.
Sequence of MAPK14 (human) (Q16539 whole entry, looked up): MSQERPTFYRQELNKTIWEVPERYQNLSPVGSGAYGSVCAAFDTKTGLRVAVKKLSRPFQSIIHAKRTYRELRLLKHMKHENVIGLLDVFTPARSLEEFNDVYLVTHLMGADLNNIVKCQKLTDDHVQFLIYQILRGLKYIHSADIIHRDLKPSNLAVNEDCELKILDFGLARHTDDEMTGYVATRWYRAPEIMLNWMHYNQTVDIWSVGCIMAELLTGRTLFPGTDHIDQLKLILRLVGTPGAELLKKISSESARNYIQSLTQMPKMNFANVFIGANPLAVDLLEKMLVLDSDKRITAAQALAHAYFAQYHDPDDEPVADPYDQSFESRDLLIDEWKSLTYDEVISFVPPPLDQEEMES
For `CN1CCC(O)(c2nc(-c3ccc(F)cc3)c(-c3ccncc3)o2)CC1`, the IC50 (as a rule, the midpoint of a concentration-inhibition curve) amounted to 350 nM.

Molecule `Fc1ccc(-c2oc(-c3ccc(Cl)cc3)cc2-c2ccncc2)cc1` returned an IC50 of 630 nM. With `C[S+]([O-])c1ccc(-c2cc(-c3ccc(F)cc3)c(-c3ccncc3)[nH]2)cc1` (stereo not drawn) the figure was 1220 nM; with `COc1cc(-c2cnoc2-c2ccc(F)cc2)ccn1`, 50000 nM; with `CC(C)c1noc(-c2ccc(F)cc2)c1-c1ccnc(NC(C)c2ccccc2)c1` (stereo not drawn), 550 nM. In the case of `Fc1ccc(-c2nc[nH]c2-c2ccncc2)cc1`, the IC50 is 170 nM. With `CCCCCNc1cc(-c2c(C(C)C)noc2-c2ccc(F)cc2)ccn1` the figure was 82000 nM; with `CN1CCC(O)(c2nc(-c3ccc(F)cc3)c(-c3ccncc3)[nH]2)CC1`, 90 nM.

Molecule `Fc1ccc(-c2oncc2-c2ccnc(Cl)c2)cc1` had an IC50 of 42000 nM. For `CC(C)Oc1cc(-c2cnoc2-c2ccc(F)cc2)ccn1`, the IC50 stood at 31000 nM. With `Fc1ccc(-c2conc2-c2ccncc2)cc1` the figure was 1220 nM.

Take `CCCNc1cc(-c2c(C(C)C)noc2-c2ccc(F)cc2)ccn1`: the IC50 stood at 4000 nM.

`CN1CCC(O)(c2nc(-c3ccncc3)c(-c3ccc(F)cc3)o2)CC1` yielded an IC50 of 2000 nM. With `Fc1ccc(-c2oncc2-c2ccncc2)cc1` the figure was 41000 nM; with `Fc1ccc(-c2[nH]c(-c3ccc(Cl)cc3)cc2-c2ccncc2)cc1`, 200 nM; with `Fc1ccc(-c2oncc2-c2ccnc(Br)c2)cc1`, 89000 nM. `CCOc1cc(-c2c(C(C)C)noc2-c2ccc(F)cc2)ccn1` came in with an IC50 of 56000 nM.

`CC(C)c1noc(-c2ccc(F)cc2)c1-c1ccnc(NCC2CC2)c1` yielded an IC50 of 1300 nM. With `Fc1ccc(-c2oncc2-c2ccnc(OCCc3ccccc3)c2)cc1` the figure was 34000 nM. As for `CC(C)c1noc(-c2ccc(F)cc2)c1-c1ccnc(NC2CC2)c1`, the half-inhibitory concentration (IC50) came out at 2000 nM.

`CCCCOc1cc(-c2cnoc2-c2ccc(F)cc2)ccn1` returned an IC50 of 21000 nM. For `Nc1onc(-c2ccncc2)c1-c1ccc(F)cc1` the value was 1610 nM; for `CCOc1cc(-c2cnoc2-c2ccc(F)cc2)ccn1`, 82000 nM.
